In experiment [1] the target is T1, PI3K δ (Homo sapiens, UniProt O00329).
T1 construct: purchased Upstate
Description: In vitro PI3K δ inhibition assay. It is filed as biochemical. On the procedure: (§1) Class I PI3-Ks can be either purchased (p110α/p85α, p110β/p85α, p110δ/p85α from Upstate, and p110γ from Sigma) or expressed as previously described (Knight et al., 2004). IC50 values are measured using either a standard TLC assay for lipid kinase activity (described below) or a high-throughput membrane capture assay. Kinase reactions are performed by preparing a reaction mixture containing kinase, inhibitor (2% DMSO final concentration), buffer (25 mM HEPES, pH 7.4, 10 mM MgCl2), and freshly sonicated phosphatidylinositol (100 μg/ml). Reactions are initiated by the addition of ATP containing 10 μCi of γ-32P-ATP to a final concentration of 10 or 100 μM and allowed to proceed for 5 minutes at room temperature. For TLC analysis, reactions are then terminated by the addition of 105 μl 1N HCl followed by 160 μl CHCl3:MeOH (1:1). The biphasic mixture is vortexed, briefly centrifuged, and the organic phase is transferred to a new tube using a gel loading pipette tip precoated with CHCl3. This extract is spotted on TLC plates and developed for 3-4 hours in a 65:35 solution of n-propanol:1M acetic acid. The TLC plates are then dried, exposed to a phosphorimager screen (Storm, Amersham), and quantitated. For each compound, kinase activity is measured at 10-12 inhibitor concentrations representing two-fold dilutions from the highest concentration tested (typically, 200 μM). […] Other commercial kits or systems for assaying PI3-K activities are available. The commercially available kits or systems can be used to screen for inhibitors and/or agonists of PI3-Ks including, but not limited to, PI 3-Kinase α, β, δ, and γ. An exemplary system is PI 3-Kinase (human) HTRF™ Assay from Upstate. […] Briefly, the assay is a time resolved FRET assay that indirectly measures PIP3 product formed by the activity of a PI3-K. The kinase reaction is performed in a microtiter plate (e.g., a 384 well microtiter plate). The total reaction volume is approximately 20 μl per well. In the first step, each well receives 2 μl of test compound in 20% dimethylsulphoxide resulting in a 2% DMSO final concentration. Next, approximately 14.5 μl of a kinase/PIP2 mixture (diluted in 1× reaction buffer) is added per well for a final concentration of 0.25-0.3 μg/ml kinase and 10 μM PIP2. The plate is sealed and incubated for 15 minutes at room temperature. To start the reaction, 3.5 μl of ATP (diluted in 1× reaction buffer) is added per well for a final concentration of 10 μM ATP. The plate is sealed and incubated for 1 hour at room temperature. The reaction is stopped by adding 5 μl of Stop Solution per well and then 5 μl of Detection Mix is added per well. The plate is sealed, incubated for 1 hour at room temperature, and then read on an appropriate plate reader. Data is analyzed and IC50s are generated using GraphPad Prism 5.

The subject of experiment [2] is Balb/c splenic B cells. Description: B cell activation and proliferation assay (Alamar Blue). It is filed as cell-based. The settings on record: Mus musculus, read-out: B cell proliferation EC50. The method, then:
The ability of one or more subject compounds to inhibit B cell activation and proliferation is determined according to standard procedures known in the art. For example, an in vitro cellular proliferation assay is established that measures the metabolic activity of live cells. The assay is performed in a 96 well microtiter plate using Alamar Blue reduction. Balb/c splenic B cells are purified over a Ficoll-Paque™ PLUS gradient followed by magnetic cell separation using a MACS B cell Isolation Kit (Miletenyi). Cells are plated in 90 μl at 50,000 cells/well in B Cell Media (RPMI+10% FBS+Penn/Strep+50 μM bME+5 mM HEPES). A compound disclosed herein is diluted in B Cell Media and added in a 10 μl volume. Plates are incubated for 30 min at 37° C. and 5% CO2 (0.2% DMSO final concentration). A 50 μl B cell stimulation cocktail is then added containing either 10 μg/ml LPS or 5 μg/ml F(ab′)2 Donkey anti-mouse IgM plus 2 ng/ml recombinant mouse IL4 in B Cell Media. Plates are incubated for 72 hours at 37° C. and 5% CO2. A volume of 15 μL of Alamar Blue reagent is added to each well and plates are incubated for 5 hours at 37° C. and 5% CO2. Alamar Blue fluoresce is read at 560Ex/590Em, and IC50 or EC50 values are calculated using GraphPad Prism 5.

In experiment [3] the target is T2, PI3K γ (Homo sapiens, UniProt P48736).
T2 construct: purchased Sigma
T2 sequence (P48736 whole entry): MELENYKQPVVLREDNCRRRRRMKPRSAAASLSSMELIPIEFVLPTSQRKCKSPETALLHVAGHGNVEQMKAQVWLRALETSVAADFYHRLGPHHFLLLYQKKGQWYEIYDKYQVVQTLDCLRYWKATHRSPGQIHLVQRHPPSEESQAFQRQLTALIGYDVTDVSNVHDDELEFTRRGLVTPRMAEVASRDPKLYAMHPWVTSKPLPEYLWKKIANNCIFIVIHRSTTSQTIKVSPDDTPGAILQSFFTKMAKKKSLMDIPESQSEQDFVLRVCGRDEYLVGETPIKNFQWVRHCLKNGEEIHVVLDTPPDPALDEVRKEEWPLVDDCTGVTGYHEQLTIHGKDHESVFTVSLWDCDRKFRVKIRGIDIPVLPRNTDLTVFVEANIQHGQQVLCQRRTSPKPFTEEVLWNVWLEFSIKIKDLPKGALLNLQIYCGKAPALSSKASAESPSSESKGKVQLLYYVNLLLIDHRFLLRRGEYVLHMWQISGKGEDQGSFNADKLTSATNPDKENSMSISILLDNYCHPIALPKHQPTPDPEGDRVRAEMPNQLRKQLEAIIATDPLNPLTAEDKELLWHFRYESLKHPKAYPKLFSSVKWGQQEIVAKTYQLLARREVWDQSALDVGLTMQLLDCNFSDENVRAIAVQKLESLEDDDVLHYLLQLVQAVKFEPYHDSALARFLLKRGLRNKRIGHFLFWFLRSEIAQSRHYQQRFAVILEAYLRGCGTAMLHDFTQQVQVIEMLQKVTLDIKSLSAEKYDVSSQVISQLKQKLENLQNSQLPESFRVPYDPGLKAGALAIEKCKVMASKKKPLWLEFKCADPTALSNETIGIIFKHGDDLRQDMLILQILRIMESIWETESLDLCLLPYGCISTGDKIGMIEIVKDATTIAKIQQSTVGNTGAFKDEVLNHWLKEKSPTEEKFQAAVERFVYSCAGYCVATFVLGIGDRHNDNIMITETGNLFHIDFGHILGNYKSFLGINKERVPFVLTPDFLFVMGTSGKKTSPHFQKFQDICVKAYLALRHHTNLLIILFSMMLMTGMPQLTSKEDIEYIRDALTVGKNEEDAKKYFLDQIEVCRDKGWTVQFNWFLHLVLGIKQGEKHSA
The experiment is described as follows: In vitro PI3K γ inhibition assay. It is filed as biochemical. On the procedure:
as §1

Experiment [4] deals with T3, PI3K α (Homo sapiens, UniProt P42336).
T3 construct: purchased Upstate
T3 sequence (P42336 whole entry): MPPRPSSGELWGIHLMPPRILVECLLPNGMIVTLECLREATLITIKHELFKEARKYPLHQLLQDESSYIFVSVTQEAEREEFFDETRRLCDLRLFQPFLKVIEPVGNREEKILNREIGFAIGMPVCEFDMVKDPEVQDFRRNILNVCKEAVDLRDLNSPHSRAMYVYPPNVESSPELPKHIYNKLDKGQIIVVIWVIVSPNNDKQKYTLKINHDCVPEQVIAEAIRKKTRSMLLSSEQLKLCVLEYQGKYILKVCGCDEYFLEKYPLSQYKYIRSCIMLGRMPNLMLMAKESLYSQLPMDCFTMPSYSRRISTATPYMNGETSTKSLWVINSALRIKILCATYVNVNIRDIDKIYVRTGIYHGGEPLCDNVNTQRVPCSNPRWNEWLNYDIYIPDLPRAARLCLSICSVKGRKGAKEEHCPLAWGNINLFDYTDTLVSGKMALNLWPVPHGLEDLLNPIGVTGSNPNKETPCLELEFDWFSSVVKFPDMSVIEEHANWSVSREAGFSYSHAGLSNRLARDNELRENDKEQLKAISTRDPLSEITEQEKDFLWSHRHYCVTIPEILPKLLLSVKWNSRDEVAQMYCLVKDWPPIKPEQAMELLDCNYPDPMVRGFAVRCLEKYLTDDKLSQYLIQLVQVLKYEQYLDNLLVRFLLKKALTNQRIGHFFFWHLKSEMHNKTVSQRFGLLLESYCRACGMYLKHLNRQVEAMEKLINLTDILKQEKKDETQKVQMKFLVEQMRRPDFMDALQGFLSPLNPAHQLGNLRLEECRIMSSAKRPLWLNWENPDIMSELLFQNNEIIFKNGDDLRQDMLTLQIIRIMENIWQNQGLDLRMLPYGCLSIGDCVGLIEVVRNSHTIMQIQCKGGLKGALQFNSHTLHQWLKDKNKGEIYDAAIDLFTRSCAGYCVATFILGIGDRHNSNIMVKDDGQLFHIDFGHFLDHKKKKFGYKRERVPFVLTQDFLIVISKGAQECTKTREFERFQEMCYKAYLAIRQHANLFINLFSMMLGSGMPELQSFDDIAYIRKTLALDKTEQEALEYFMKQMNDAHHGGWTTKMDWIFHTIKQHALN
T3 sequence (P27986 whole entry partner): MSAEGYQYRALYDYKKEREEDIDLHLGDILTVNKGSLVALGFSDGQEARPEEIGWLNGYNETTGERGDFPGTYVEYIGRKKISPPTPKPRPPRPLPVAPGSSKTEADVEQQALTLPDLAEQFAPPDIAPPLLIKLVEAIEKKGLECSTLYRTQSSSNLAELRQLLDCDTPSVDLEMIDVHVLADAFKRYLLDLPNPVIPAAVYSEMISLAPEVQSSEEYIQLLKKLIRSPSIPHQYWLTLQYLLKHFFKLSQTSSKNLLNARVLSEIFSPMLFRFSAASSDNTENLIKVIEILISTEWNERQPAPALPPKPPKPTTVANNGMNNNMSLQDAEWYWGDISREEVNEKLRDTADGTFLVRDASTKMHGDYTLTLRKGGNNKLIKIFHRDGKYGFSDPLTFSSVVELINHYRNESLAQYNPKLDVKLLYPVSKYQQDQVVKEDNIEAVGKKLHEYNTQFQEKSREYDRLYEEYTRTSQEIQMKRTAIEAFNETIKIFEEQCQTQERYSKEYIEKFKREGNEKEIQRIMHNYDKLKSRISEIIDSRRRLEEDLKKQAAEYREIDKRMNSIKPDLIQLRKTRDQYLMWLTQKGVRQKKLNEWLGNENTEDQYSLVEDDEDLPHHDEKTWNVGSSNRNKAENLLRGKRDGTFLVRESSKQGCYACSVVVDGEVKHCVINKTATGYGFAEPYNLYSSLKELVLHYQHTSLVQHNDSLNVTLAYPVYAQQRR
Description: In vitro PI3K α inhibition assay. It is filed as biochemical. The method, then: (§2) Class I PI3-Ks can be either purchased (p110α/p85α, p110β/p85α, p110δ/p85α from Upstate, and p110γ from Sigma) or expressed as previously described (Knight et al., 2004). IC50 values are measured using either a standard TLC assay for lipid kinase activity (described below) or a high-throughput membrane capture assay. Kinase reactions are performed by preparing a reaction mixture containing kinase, inhibitor (2% DMSO final concentration), buffer (25 mM HEPES, pH 7.4, 10 mM MgCl2), and freshly sonicated phosphatidylinositol (100 μg/ml). Reactions are initiated by the addition of ATP containing 10 μCi of γ-32P-ATP to a final concentration of 10 or 100 μM and allowed to proceed for 5 minutes at room temperature. For TLC analysis, reactions are then terminated by the addition of 105 μl 1N HCl followed by 160 μl CHCl3:MeOH (1:1). The biphasic mixture is vortexed, briefly centrifuged, and the organic phase is transferred to a new tube using a gel loading pipette tip precoated with CHCl3. This extract is spotted on TLC plates and developed for 3-4 hours in a 65:35 solution of n-propanol:1M acetic acid. The TLC plates are then dried, exposed to a phosphorimager screen (Storm, Amersham), and quantitated. For each compound, kinase activity is measured at 10-12 inhibitor concentrations representing two-fold dilutions from the highest concentration tested (typically, 200 μM).
(§3) Other commercial kits or systems for assaying PI3-K activities are available. The commercially available kits or systems can be used to screen for inhibitors and/or agonists of PI3-Ks including, but not limited to, PI 3-Kinase α, β, δ, and γ. An exemplary system is PI 3-Kinase (human) HTRF™ Assay from Upstate. […] Briefly, the assay is a time resolved FRET assay that indirectly measures PIP3 product formed by the activity of a PI3-K. The kinase reaction is performed in a microtiter plate (e.g., a 384 well microtiter plate). The total reaction volume is approximately 20 μl per well. In the first step, each well receives 2 μl of test compound in 20% dimethylsulphoxide resulting in a 2% DMSO final concentration. Next, approximately 14.5 μl of a kinase/PIP2 mixture (diluted in 1× reaction buffer) is added per well for a final concentration of 0.25-0.3 μg/ml kinase and 10 μM PIP2. The plate is sealed and incubated for 15 minutes at room temperature. To start the reaction, 3.5 μl of ATP (diluted in 1× reaction buffer) is added per well for a final concentration of 10 μM ATP. The plate is sealed and incubated for 1 hour at room temperature. The reaction is stopped by adding 5 μl of Stop Solution per well and then 5 μl of Detection Mix is added per well. The plate is sealed, incubated for 1 hour at room temperature, and then read on an appropriate plate reader. Data is analyzed and IC50s are generated using GraphPad Prism 5.

Experiment [5] addresses T4, PI3K β (Homo sapiens, UniProt P42338).
T4 construct: purchased Upstate
Description: In vitro PI3K β inhibition assay. Type of experiment: biochemical. On the procedure:
as §2, §3

Structures are written as SMILES.

T4 sequence (P42338 whole entry): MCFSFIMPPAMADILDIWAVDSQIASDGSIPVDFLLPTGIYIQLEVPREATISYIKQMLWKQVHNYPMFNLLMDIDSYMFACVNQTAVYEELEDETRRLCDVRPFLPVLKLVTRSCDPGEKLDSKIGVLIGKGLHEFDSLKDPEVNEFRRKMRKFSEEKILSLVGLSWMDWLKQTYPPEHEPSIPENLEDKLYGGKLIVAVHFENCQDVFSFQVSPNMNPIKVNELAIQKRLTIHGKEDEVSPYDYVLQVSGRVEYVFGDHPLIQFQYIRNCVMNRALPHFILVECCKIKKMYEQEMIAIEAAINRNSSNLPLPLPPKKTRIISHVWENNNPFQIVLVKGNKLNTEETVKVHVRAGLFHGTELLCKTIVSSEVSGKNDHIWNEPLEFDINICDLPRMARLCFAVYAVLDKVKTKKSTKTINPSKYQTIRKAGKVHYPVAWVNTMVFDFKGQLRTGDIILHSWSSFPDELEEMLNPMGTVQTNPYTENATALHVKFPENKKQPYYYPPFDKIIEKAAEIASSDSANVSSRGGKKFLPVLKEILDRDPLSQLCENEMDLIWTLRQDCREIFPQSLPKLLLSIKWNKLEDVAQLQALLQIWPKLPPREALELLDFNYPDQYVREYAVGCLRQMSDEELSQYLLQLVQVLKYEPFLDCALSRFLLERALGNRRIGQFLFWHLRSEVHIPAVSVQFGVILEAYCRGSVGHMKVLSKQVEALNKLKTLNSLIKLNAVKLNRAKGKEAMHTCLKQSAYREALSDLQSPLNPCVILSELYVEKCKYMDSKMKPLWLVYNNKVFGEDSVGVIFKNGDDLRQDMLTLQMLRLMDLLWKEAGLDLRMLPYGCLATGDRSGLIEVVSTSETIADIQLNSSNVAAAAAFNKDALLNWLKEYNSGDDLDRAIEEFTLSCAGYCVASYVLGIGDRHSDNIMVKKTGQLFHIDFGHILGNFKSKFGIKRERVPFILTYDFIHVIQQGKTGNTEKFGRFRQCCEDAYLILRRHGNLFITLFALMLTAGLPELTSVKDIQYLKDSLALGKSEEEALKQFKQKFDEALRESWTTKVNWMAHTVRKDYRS
T4 sequence (P27986 whole entry partner): as the sequence (P27986 whole entry partner) above
T1 sequence (O00329 whole entry): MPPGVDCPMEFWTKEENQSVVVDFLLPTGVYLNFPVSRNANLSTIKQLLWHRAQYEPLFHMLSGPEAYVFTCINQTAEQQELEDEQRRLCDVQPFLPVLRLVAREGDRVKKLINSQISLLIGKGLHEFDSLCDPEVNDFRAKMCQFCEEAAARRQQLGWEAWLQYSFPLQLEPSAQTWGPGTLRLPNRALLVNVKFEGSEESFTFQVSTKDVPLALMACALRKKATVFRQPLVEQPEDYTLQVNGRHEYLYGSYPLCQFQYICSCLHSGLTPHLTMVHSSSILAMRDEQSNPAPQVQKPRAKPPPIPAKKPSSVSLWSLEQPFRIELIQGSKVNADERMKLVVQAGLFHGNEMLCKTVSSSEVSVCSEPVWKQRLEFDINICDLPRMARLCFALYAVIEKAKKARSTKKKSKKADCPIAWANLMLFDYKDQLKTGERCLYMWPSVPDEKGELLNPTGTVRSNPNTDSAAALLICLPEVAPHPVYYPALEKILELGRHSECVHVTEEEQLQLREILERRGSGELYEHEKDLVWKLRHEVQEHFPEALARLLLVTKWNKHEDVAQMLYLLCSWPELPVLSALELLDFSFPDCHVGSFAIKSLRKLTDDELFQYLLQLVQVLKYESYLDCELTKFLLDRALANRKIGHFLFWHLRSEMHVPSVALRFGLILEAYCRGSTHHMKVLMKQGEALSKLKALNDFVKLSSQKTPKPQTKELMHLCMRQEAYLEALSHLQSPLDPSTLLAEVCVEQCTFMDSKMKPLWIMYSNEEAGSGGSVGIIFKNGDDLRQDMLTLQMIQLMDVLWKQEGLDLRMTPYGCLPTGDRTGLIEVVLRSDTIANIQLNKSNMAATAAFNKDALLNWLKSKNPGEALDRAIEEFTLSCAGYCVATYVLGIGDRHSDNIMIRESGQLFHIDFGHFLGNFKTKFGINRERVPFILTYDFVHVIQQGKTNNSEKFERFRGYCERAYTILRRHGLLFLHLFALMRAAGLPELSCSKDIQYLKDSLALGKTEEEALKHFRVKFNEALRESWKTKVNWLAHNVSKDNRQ
T1 sequence (P27986 whole entry partner): as the sequence (P27986 whole entry partner) above

Take `C[C@H](Nc1ncnc2[nH]cnc12)c1cc2cccc(N3CCCC3)c2c(=O)n1-c1ccccc1` [Compound 4, (S)-3-(1-((9H-purin-6-yl)amino)ethyl)-2-phenyl-8-(pyrrolidin-1-yl)isoquinolin-1 (2H)-one]: the IC50 in experiment [1] and in experiment [3] was < 10000 nM in each case. The EC50 in experiment [2] is < 1 µM.
As for `C[C@H](Nc1ncnc2[nH]cnc12)c1cc2cccc(N3CCN(C)CC3)c2c(=O)n1-c1ccccc1` [Compound 5, (S)-3-(1-((9H-purin-6-yl)amino)ethyl)-8-(4-methylpiperazin-1-yl)-2-phenylisoquinolin-1(2H)-one], the EC50 in experiment [2] is < 0.1 µM.
As to `Cc1ccc(-c2cccc3cc([C@H](C)Nc4ncnc5[nH]cnc45)n(-c4ccccc4)c(=O)c23)cn1` [Compound 27], the EC50 in experiment [2] is < 0.1 µM. Also, in experiment [4], the IC50 was < 10000 nM.
Regarding `C[C@H](Nc1ncnc2[nH]cnc12)c1cc2cccc(-n3cccn3)c2c(=O)n1-c1ccccc1` [Compound 29], in experiment [2], the EC50 was < 1 µM. Moreover, the IC50 in experiment [3] is < 10000 nM.
For `Cc1cnn(-c2cccc3cc([C@H](C)Nc4ncnc5[nH]cnc45)n(-c4ccccc4)c(=O)c23)c1` [Compound 30], in that order: < 1 µM and < 10000 nM.
The like results for `Cc1cn(-c2cccc3cc([C@H](C)Nc4ncnc5[nH]cnc45)n(-c4ccccc4)c(=O)c23)cn1` [Compound 31] were, in that order, < 0.1 µM and < 10000 nM.
The like results for `C[C@H](Nc1ncnc(N)n1)c1cc2cccc(-c3cnn(C)c3)c2c(=O)n1-c1ccccc1` [Compound 33, 3-((S)-1-(4-amino-1,3,5-triazin-2-ylamino)ethyl)-8-(1-methyl-1H-pyrazol-4-yl)-2-phenylisoquinolin-1(2H)-one] were, in that order, < 0.1 µM and < 10000 nM.
Consider `Cc1ccc(-c2cccc3cc([C@H](C)Nc4ncnc(N)n4)n(-c4ccccc4)c(=O)c23)cn1` [Compound 34], for which, in experiment [2], the EC50 was < 1 µM. For the same compound, the IC50 in experiment [3] was < 10000 nM.
As for `C[C@H](Nc1nc(N)nc2[nH]cnc12)c1cc2cccc(-c3cnn(C)c3)c2c(=O)n1-c1ccccc1` [Compound 36], in experiment [2], the EC50 was < 0.1 µM. For the same compound, in experiment [5], the IC50 is < 10000 nM.
The like results for `Cc1ccc(-c2cccc3cc([C@H](C)Nc4nc(N)nc5[nH]cnc45)n(-c4ccccc4)c(=O)c23)cn1` [Compound 37] were, in that order, < 0.1 µM and < 10000 nM.
Take `C[C@H](Nc1nc(N)nc2[nH]cnc12)c1cc2cccc(-c3cccnc3)c2c(=O)n1-c1ccccc1` [Compound 38]: the IC50 in experiment [5] is < 10000 nM.
Consider `Cc1cc(-c2cccc3cc([C@H](C)Nc4ncnc5[nH]cnc45)n(-c4ccccc4)c(=O)c23)ccn1` [Compound 41], for which, in experiment [2], the EC50 is < 0.1 µM. Further, in experiment [5], the IC50 was < 10000 nM.
As to `C[C@H](Nc1ncnc2[nH]cnc12)c1cc2cccc(-c3cnn(C)c3)c2c(=O)n1-c1cccc(F)c1` [Compound 45], the EC50 in experiment [2] was < 0.1 µM. Further, the IC50 in experiment [4] was < 10000 nM.
With `C[C@H](Nc1ncnc2[nH]cnc12)c1cc2cccc(-c3cccnc3)c2c(=O)[nH]1` [Compound 49], in experiment [2], the EC50 is < 0.1 µM.
For `C[C@H](Nc1ncnc2[nH]cnc12)c1cc2cccc(-c3cnn(C)c3)c2c(=O)[nH]1` [Compound 50], the IC50 in experiment [1] was < 10000 nM.
In the case of `C[C@H](Nc1ncnn2ccnc12)c1cc2cccc(-c3cnn(C)c3)c2c(=O)n1-c1ccccc1` [Compound 52], the EC50 in experiment [2] was < 0.1 µM. The IC50 in experiment [4] is < 10000 nM.
In the case of `C[C@H](Nc1ncnn2cncc12)c1cc2cccc(-c3cnn(C)c3)c2c(=O)n1-c1ccccc1` [Compound 54], in experiment [1], the IC50 was < 10000 nM.
On to `C[C@H](Nc1ncnc2[nH]cc(C#N)c12)c1cc2cccc(-c3cnn(C)c3)c2c(=O)n1-c1ccccc1` [Compound 56], for which the EC50 in experiment [2] was < 0.1 µM. The IC50 in experiment [5] is < 10000 nM.
Turning to `C[C@H](Nc1ncnc2[nH]cc(C(N)=O)c12)c1cc2cccc(-c3cnn(C)c3)c2c(=O)n1-c1ccccc1` [Compound 58], the IC50 in experiment [5] and in experiment [4] was < 10000 nM in each case.
As for `C[C@H](Nc1ncnc2[nH]cc(F)c12)c1cc2cccc(-c3cnn(C)c3)c2c(=O)n1C1CC1` [Compound 62], the EC50 in experiment [2] is < 0.1 µM. For the same compound, the IC50 in experiment [5] and in experiment [4] was < 10000 nM throughout.
With `C[C@H](Nc1nc(N)ncc1C(F)(F)F)c1cc2cccc(-c3cnn(C)c3)c2c(=O)n1C1CC1` [Compound 67], the EC50 in experiment [2] is < 0.1 µM.
The same measure, in the same setting: the same measure for `C[C@H](Nc1nc(N)ncc1C(F)(F)F)c1cc2cccc(-c3cnn(C)c3)c2c(=O)n1-c1ccccc1` [Compound 68]: < 0.1 µM.
As for `C[C@H](Nc1nc(N)ncc1C#N)c1cc2cccc(-c3cnn(C)c3)c2c(=O)n1C1CC1` [Compound 72], in experiment [4], the IC50 is < 10000 nM.
Same read-out and setting: with `C[C@H](Nc1ncnc(N)c1C#N)c1cc2cccc(-c3cnn(C)c3)c2c(=O)n1-c1ccccc1` [Compound 73] the figure was < 10000 nM.
On to `COc1ncc(-c2cccc3cc([C@H](C)Nc4ncnc5[nH]cnc45)n(-c4ccccc4)c(=O)c23)cn1` [Compound 76], for which the IC50 in experiment [3] and in experiment [4] was < 10000 nM each time.

For the origin of these results see patent US9738644B2, “Chemical compounds, compositions and methods for kinase modulation” (Infinity Pharmaceuticals, Inc., priority 2010, dated 2017).
